1 molecule from paper PMC11457865, “The HIV latency reversing agent HODHBt inhibits the phosphatases PTPN1 and PTPN2” (JCI Insight, 2024) can be followed below.

In one experiment the target is T1, PTPN1 (PTP1B) (Homo sapiens, UniProt P18031).
T1 construct: catalytic domain (fluorogenic PTP1B catalytic domain assay kit, BPS Bioscience 79764; purified catalytic domain 1-301 for CETSA)
T1 sequence (P18031 1-301): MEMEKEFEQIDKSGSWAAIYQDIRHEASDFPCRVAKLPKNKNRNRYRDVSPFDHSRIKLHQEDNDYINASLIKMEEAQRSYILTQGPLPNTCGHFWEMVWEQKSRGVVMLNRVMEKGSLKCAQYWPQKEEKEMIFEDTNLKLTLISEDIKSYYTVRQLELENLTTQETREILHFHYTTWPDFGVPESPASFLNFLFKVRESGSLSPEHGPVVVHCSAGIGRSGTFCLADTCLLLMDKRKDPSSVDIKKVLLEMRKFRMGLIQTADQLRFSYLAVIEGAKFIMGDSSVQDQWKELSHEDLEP
Briefly: fluorogenic phosphatase assay with Lineweaver-Burk kinetics; also CETSA on purified catalytic domain, CD4 T cell lysates, and TPP in live PBMCs and K562 cells. The format is biochemical.

In a further experiment the target is T2, PTPN2 (TC-PTP) (Homo sapiens, UniProt P17706).
T2 construct: catalytic domain (recombinant GST-tag TC-PTP, BPS Bioscience 30013)
T2 sequence (P17706 1-317 limits assumed): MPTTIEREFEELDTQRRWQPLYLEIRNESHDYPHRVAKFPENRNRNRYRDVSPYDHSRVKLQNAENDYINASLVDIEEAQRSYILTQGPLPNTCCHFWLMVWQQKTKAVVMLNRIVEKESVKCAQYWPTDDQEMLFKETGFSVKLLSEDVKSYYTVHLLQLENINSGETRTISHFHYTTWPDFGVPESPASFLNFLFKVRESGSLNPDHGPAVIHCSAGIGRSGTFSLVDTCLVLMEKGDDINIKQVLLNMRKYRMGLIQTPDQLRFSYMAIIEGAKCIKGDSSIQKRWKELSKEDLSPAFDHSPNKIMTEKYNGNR
Kind of experiment: fluorogenic phosphatase assay with Lineweaver-Burk kinetics; also CETSA on purified catalytic domain (destabilization), CD4 T cell lysates, and TPP in live PBMCs and K562 cells. In kind it is biochemical.

What is called IC50 is the midpoint of a concentration-inhibition curve. High values mean weaker potency in that assay, low ones greater potency in that assay. In the case of `O=c1c2ccccc2nnn1O` [HODHBt, 3-Hydroxy-1,2,3-benzotriazin-4(3H)-one], the IC50 against PTPN1 (PTP1B) was determined as 601 µM; on PTPN2 (TC-PTP) it was 544 µM.
